Experimental findings from US9399649B2, “Compounds for treating spinal muscular atrophy” (PTC Therapeutics Inc., priority 2012, dated 2016) are described below.

The structures appear in SMILES notation. Some results are limits rather than exact numbers.

The subject of data set [1] is full length SMN2 minigene mRNA containing SMN2 exon 7. Put plainly: SMN2 minigene mRNA splicing RT-qPCR assay in cultured cells. The format is cell-based, human. The note with it: Homo sapiens, HEK293-H; HEK293H cells stably transfected with SMN2-A minigene, 24 hours, 7-point concentration curve; concentration giving 1.5-fold full length SMN2 mRNA vs vehicle; read-out: EC1.5x for production of full length SMN2 mRNA. An outline of the steps: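 Read-out is minigene FL mRNA (exon 7 included) relative to vehicle, from efficiency-corrected ΔΔCt with GAPDH normalisation. Primers and probe span exon 7, exon 8 and luciferase, so endogenous SMN is not detected. Stable SMN2-A minigene HEK293H cells, 24 h compound exposure at 37 °C, 7-point curve in duplicate.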

The test system of the next data set is Smn protein. Put plainly: Smn protein assay in cultured cells (SMN HTRF). The note with it: SMA patient fibroblast cells (GM03813), 48 hours; for EC1.5x for Smn protein expression: 7-point concentration curve, concentration producing 1.5 times Smn protein vs DMSO vehicle; for maximum fold (Fold) increase of Smn protein: 7-point concentration data, relative to vehicle control. The format is cell-based, human. The method in brief: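 Smn protein measured by HTRF (anti-SMN d2/kryptate) in lysates of SMA patient fibroblasts after 48 h compound treatment, 7-point 3.16-fold dilutions, triplicates. The 665/620 nm ratio is blank-corrected to ΔF, then divided by the vehicle ΔF to give fold increase.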

With `Cc1cn2cc(-c3cc4ccc(N5CCN(C)[C@H](C)C5)cc4c(=O)o3)nc2c(C)n1` [Cpd 72, 3-(6,8-dimethylimidazo[1,2-a]pyrazin-2-yl)-7-[(3R)-3,4-dimethylpiperazin-1-yl]-1H-isochromen-1-one], the melting point lay in the range of 252 to 254 °C. Also, the EC (1.5-fold) in data set [1] is not above 0.1 µM. Moreover, in the data set with Smn protein, the “EC1.5x for Smn protein expression” value was “*** (an EC1.5× between >0.3 nM and ≦1 nM is indicated by three stars (***))”; the “maximum fold (Fold) increase of Smn protein” value (from here on “maximum fold (Fold) increase”) is reported as “***** (a fold increase >1.65 is indicated by five stars (*****))”.
For `Cc1cn2cc(-c3cc4ccc(N5CCN(CCO)[C@H](C)C5)cc4c(=O)o3)nc2c(C)n1` [Cpd 142, 3-(6,8-dimethylimidazo[1,2-a]pyrazin-2-yl)-7-[(3R)-4-(2-hydroxyethyl)-3-methylpiperazin-1-yl]-1H-isochromen-1-one], the melting point fell in the range of 256 to 261 °C. For the same compound, in data set [1], the EC (1.5-fold) is not above 0.1 µM. In the data set with Smn protein, the “EC1.5x for Smn protein expression” value is “**** (an EC1.5×≦0.3 nM is indicated by four stars (****))” and the “maximum fold (Fold) increase” value is on record as “***** (a fold increase >1.65 is indicated by five stars (*****))”.
Taken in the same sequence, the figures for `CCN1CCN(c2ccc3cc(-c4cn5cc(C)nc(C)c5n4)oc(=O)c3c2)C[C@@H]1C` [Cpd 135, 3-(6,8-dimethylimidazo[1,2-a]pyrazin-2-yl)-7-[(3S)-4-ethyl-3-methylpiperazin-1-yl]-1H-isochromen-1-one] were 238 to 243 °C, not above 0.1 µM, “**** (an EC1.5×≦0.3 nM is indicated by four stars (****))” and “***** (a fold increase >1.65 is indicated by five stars (*****))”.
Taken in the same sequence, the figures for `CCc1nc(C)cn2cc(-c3cc4ccc(N5CCN(C)[C@@H](C)C5)cc4c(=O)o3)nc12` [Cpd 155, 7-[(3S)-3,4-dimethylpiperazin-1-yl]-3-(8-ethyl-6-methylimidazo[1,2-a]pyrazin-2-yl)-1H-isochromen-1-one] were 233 to 238 °C, not above 0.1 µM, “**** (an EC1.5×≦0.3 nM is indicated by four stars (****))” and “***** (a fold increase >1.65 is indicated by five stars (*****))”.
Taken in the same sequence, the figures for `Cc1cn2cc(-c3cc4ccc(N5CCN(C6CCC6)[C@@H](C)C5)cc4c(=O)o3)nc2c(C)n1` [Cpd 136, 7-[(3S)-4-cyclobutyl-3-methylpiperazin-1-yl]-3-(6,8-dimethylimidazo[1,2-a]pyrazin-2-yl)-1H-isochromen-1-one] were 277 to 282 °C, not above 0.1 µM, “**** (an EC1.5×≦0.3 nM is indicated by four stars (****))” and “***** (a fold increase >1.65 is indicated by five stars (*****))”.
Compound `O=c1oc(-c2ccccn2)cc2ccc(N3CCNCC3)cc12` [Cpd 1, 7-(piperazin-1-yl)-3-(pyridin-2-yl)-1H-isochromen-1-one] gave a melting point of 179 to 181 °C. Also, in data set [1], the EC (1.5-fold) is 1 to 3 µM. In the data set on Smn protein, the “maximum fold (Fold) increase” value was “** (a fold increase between >1.2 and ≦1.35 is indicated by two stars (**))”.
The compound `COc1cccc(-c2cc3ccc(N4CCNCC4)cc3c(=O)o2)c1` [Cpd 18, 3-(3-methoxyphenyl)-7-(piperazin-1-yl)-1H-isochromen-1-one] gave a melting point of 140 to 142 °C. Further, in data set [1], the EC (1.5-fold) is 0.3 to 1 µM. Moreover, in the data set on Smn protein, the “maximum fold (Fold) increase” value is listed as “* (A maximum fold increase of ≦1.2 is indicated by one star (*))”.
`Cc1cn2cc(-c3cc4ccc(N5CCN(CCO)CC5)cc4c(=O)o3)cc2c(C)n1` [Cpd 79, 3-(1,3-dimethylpyrrolo[1,2-a]pyrazin-7-yl)-7-[4-(2-hydroxyethyl)piperazin-1-yl]-1H-isochromen-1-one] came in with a melting point of 240 to 242 °C. Moreover, the EC (1.5-fold) in data set [1] was not above 0.1 µM. Moreover, in the data set with Smn protein, the “EC1.5x for Smn protein expression” value is “**** (an EC1.5×≦0.3 nM is indicated by four stars (****))”; the “maximum fold (Fold) increase” value was “**** (a fold increase between >1.5 and ≦1.65 is indicated by four stars (****))”.
Compound `Cc1cn2cc(-c3cc4ccc(N5CCN(C)CC5)cc4c(=O)o3)cc2c(C)n1` [Cpd 76, 3-(1,3-dimethylpyrrolo[1,2-a]pyrazin-7-yl)-7-(4-methylpiperazin-1-yl)-1H-isochromen-1-one] displayed a melting point of 219 to 221 °C. Moreover, the EC (1.5-fold) in data set [1] is not above 0.1 µM. In addition, in the data set on Smn protein, the “EC1.5x for Smn protein expression” value was “** (an EC1.5× between >1 μM, and ≦3 nM is indicated by two stars (**))”; the “maximum fold (Fold) increase” value was “*** (a fold increase between >1.35 and ≦1.5 is indicated by three stars (***))”.
Compound `CCN1[C@H](C)CN(c2ccc3cc(-c4cn5cc(C)nc(C)c5n4)oc(=O)c3c2)C[C@@H]1C` [Cpd 147, 3-(6,8-dimethylimidazo[1,2-a]pyrazin-2-yl)-7-[(3R,5S)-4-ethyl-3,5-dimethylpiperazin-1-yl]-1H-isochromen-1-one] came in with a melting point of 253 to 258 °C. Also, the EC (1.5-fold) in data set [1] was not above 0.1 µM. Also, in the data set on Smn protein, the “EC1.5x for Smn protein expression” value was “*** (an EC1.5× between >0.3 nM and ≦1 nM is indicated by three stars (***))”; the “maximum fold (Fold) increase” value is on record as “***** (a fold increase >1.65 is indicated by five stars (*****))”.
On to `CN1CCN(c2ccc3cc(-c4ccc5c(c4)OCCO5)oc(=O)c3c2)CC1` [Cpd 38, 3-(2,3-dihydro-1,4-benzodioxin-6-yl)-7-(4-methylpiperazin-1-yl)-1H-isochromen-1-one], for which the melting point fell in the range of 163 to 165 °C. In addition, the EC (1.5-fold) in data set [1] was in the range of 3 to 30 µM. In addition, the “maximum fold (Fold) increase” value in the data set with Smn protein is given as “* (A maximum fold increase of ≦1.2 is indicated by one star (*))”.
As to `C[C@H]1CN(c2ccc3cc(-c4ccccn4)oc(=O)c3c2)CCN1` [Cpd 34, 7-[(3S)-3-methylpiperazin-1-yl]-3-(pyridin-2-yl)-1H-isochromen-1-one], the melting point was 343 to 345 °C. Also, the EC (1.5-fold) in data set [1] lay within 0.3 to 1 µM. For the same compound, in the data set on Smn protein, the “EC1.5x for Smn protein expression” value was “* (An EC1.5× for Smn protein expression between >3 μM and <10 μM is indicated by one star (*))”; the “maximum fold (Fold) increase” value was “*** (a fold increase between >1.35 and ≦1.5 is indicated by three stars (***))”.
For `C[C@H]1CN(c2ccc3cc(-c4cccc(OC(F)F)c4)oc(=O)c3c2)CCN1` [Cpd 53, 3-[3-(difluoromethoxy)phenyl]-7-[(3S)-3-methylpiperazin-1-yl]-1H-isochromen-1-one], the melting point lay in the range of 132 to 134 °C. The EC (1.5-fold) in data set [1] lay within 0.3 to 1 µM. The “maximum fold (Fold) increase” value in the data set on Smn protein was “** (a fold increase between >1.2 and ≦1.35 is indicated by two stars (**))”.
In turn, `CCCN1CCC(c2ccc3cc(-c4cn5cc(C)nc(C)c5n4)oc(=O)c3c2)CC1` [Cpd 116, 3-(6,8-dimethylimidazo[1,2-a]pyrazin-2-yl)-7-(1-propylpiperidin-4-yl)-1H-isochromen-1-one] returned a melting point of 204 to 206 °C. For the same compound, the EC (1.5-fold) in data set [1] is not above 0.1 µM. Further, in the data set on Smn protein, the “EC1.5x for Smn protein expression” value was “*** (an EC1.5× between >0.3 nM and ≦1 nM is indicated by three stars (***))”; the “maximum fold (Fold) increase” value is “**** (a fold increase between >1.5 and ≦1.65 is indicated by four stars (****))”.
